± gives the uncertainty stated by the source.
Assay: xn = mol fraction of the nth substance listed
Conditions: 308.15 K, 101 kPa

CCCCCCCCCCCCCCCC[n+]1ccccc1.[Cl-] + C[C@H](N)C(=O)O + O
electrical conductivity (x2 = 0, x1 = 5.4e-07): 0.000222 ± 2e-06 S/m
electrical conductivity (x2 = 0, x1 = 9e-07): 0.00029 ± 3e-06 S/m
electrical conductivity (x2 = 0, x1 = 1.62e-06): 0.0004 ± 4e-06 S/m
electrical conductivity (x2 = 0, x1 = 2.34e-06): 0.000465 ± 5e-06 S/m
electrical conductivity (x2 = 0, x1 = 2.88e-06): 0.000581 ± 6e-06 S/m
electrical conductivity (x2 = 0, x1 = 3.78e-06): 0.000705 ± 7e-06 S/m
electrical conductivity (x2 = 0, x1 = 4.5e-06): 0.000794 ± 8e-06 S/m
electrical conductivity (x2 = 0, x1 = 5.59e-06): 0.000937 ± 9e-06 S/m
electrical conductivity (x2 = 0, x1 = 6.85e-06): 0.00106 ± 1.1e-05 S/m
electrical conductivity (x2 = 0, x1 = 7.93e-06): 0.001222 ± 1.2e-05 S/m
electrical conductivity (x2 = 0, x1 = 9.01e-06): 0.001438 ± 1.4e-05 S/m
electrical conductivity (x2 = 0, x1 = 1.009e-05): 0.00159 ± 1.6e-05 S/m
electrical conductivity (x2 = 0, x1 = 1.117e-05): 0.001701 ± 1.7e-05 S/m
electrical conductivity (x2 = 0, x1 = 1.442e-05): 0.00209 ± 2.1e-05 S/m
electrical conductivity (x2 = 0, x1 = 1.55e-05): 0.00219 ± 2.2e-05 S/m
electrical conductivity (x2 = 0, x1 = 1.766e-05): 0.00237 ± 2.4e-05 S/m
electrical conductivity (x2 = 0, x1 = 1.982e-05): 0.00248 ± 2.5e-05 S/m
electrical conductivity (x2 = 0, x1 = 2.18e-05): 0.00259 ± 2.6e-05 S/m
electrical conductivity (x2 = 0, x1 = 2.397e-05): 0.00264 ± 2.6e-05 S/m
electrical conductivity (x2 = 0, x1 = 2.595e-05): 0.00278 ± 2.8e-05 S/m
electrical conductivity (x2 = 0, x1 = 2.991e-05): 0.00297 ± 3e-05 S/m
electrical conductivity (x2 = 0, x1 = 3.406e-05): 0.00314 ± 3.1e-05 S/m
electrical conductivity (x2 = 0, x1 = 3.784e-05): 0.00328 ± 3.3e-05 S/m
electrical conductivity (x2 = 0, x1 = 4.162e-05): 0.00342 ± 3.4e-05 S/m
electrical conductivity (x2 = 0, x1 = 4.541e-05): 0.00356 ± 3.6e-05 S/m
electrical conductivity (x2 = 0, x1 = 4.919e-05): 0.00369 ± 3.7e-05 S/m
electrical conductivity (x2 = 0, x1 = 5.099e-05): 0.00375 ± 3.8e-05 S/m
electrical conductivity (x2 = 0, x1 = 5.982e-05): 0.00403 ± 4e-05 S/m
electrical conductivity (x2 = 0, x1 = 6.829e-05): 0.00432 ± 4.3e-05 S/m
electrical conductivity (x2 = 0, x1 = 7.64e-05): 0.00454 ± 4.5e-05 S/m
electrical conductivity (x2 = 0, x1 = 8.415e-05): 0.00477 ± 4.8e-05 S/m
electrical conductivity (x2 = 0, x1 = 9.171e-05): 0.00497 ± 5e-05 S/m
electrical conductivity (x2 = 0, x1 = 9.892e-05): 0.00516 ± 5.2e-05 S/m
electrical conductivity (x2 = 0, x1 = 0.0001058): 0.00533 ± 5.3e-05 S/m
electrical conductivity (x2 = 0, x1 = 0.0001124): 0.0055 ± 5.5e-05 S/m
electrical conductivity (x2 = 0, x1 = 0.0001189): 0.00565 ± 5.7e-05 S/m
electrical conductivity (x2 = 2.252e-05, x1 = 1.08e-06): 0.000338 ± 3e-06 S/m
electrical conductivity (x2 = 2.252e-05, x1 = 2.34e-06): 0.00063 ± 6e-06 S/m
electrical conductivity (x2 = 2.252e-05, x1 = 3.42e-06): 0.000917 ± 9e-06 S/m
electrical conductivity (x2 = 2.252e-05, x1 = 4.69e-06): 0.00119 ± 1.2e-05 S/m
electrical conductivity (x2 = 2.252e-05, x1 = 5.77e-06): 0.00147 ± 1.5e-05 S/m
electrical conductivity (x2 = 2.252e-05, x1 = 6.85e-06): 0.001711 ± 1.7e-05 S/m
electrical conductivity (x2 = 2.252e-05, x1 = 7.93e-06): 0.001903 ± 1.9e-05 S/m
electrical conductivity (x2 = 2.252e-05, x1 = 9.19e-06): 0.00208 ± 2.1e-05 S/m
electrical conductivity (x2 = 2.252e-05, x1 = 1.027e-05): 0.00219 ± 2.2e-05 S/m
electrical conductivity (x2 = 2.252e-05, x1 = 1.135e-05): 0.00241 ± 2.4e-05 S/m
electrical conductivity (x2 = 2.252e-05, x1 = 1.243e-05): 0.00258 ± 2.6e-05 S/m
electrical conductivity (x2 = 2.252e-05, x1 = 1.352e-05): 0.00273 ± 2.7e-05 S/m
electrical conductivity (x2 = 2.252e-05, x1 = 1.46e-05): 0.00288 ± 2.9e-05 S/m
electrical conductivity (x2 = 2.252e-05, x1 = 1.568e-05): 0.00298 ± 3e-05 S/m
electrical conductivity (x2 = 2.252e-05, x1 = 1.784e-05): 0.00318 ± 3.2e-05 S/m
electrical conductivity (x2 = 2.252e-05, x1 = 2e-05): 0.00331 ± 3.3e-05 S/m
electrical conductivity (x2 = 2.252e-05, x1 = 2.217e-05): 0.00341 ± 3.4e-05 S/m
electrical conductivity (x2 = 2.252e-05, x1 = 2.433e-05): 0.00351 ± 3.5e-05 S/m
electrical conductivity (x2 = 2.252e-05, x1 = 2.631e-05): 0.00358 ± 3.6e-05 S/m
electrical conductivity (x2 = 2.252e-05, x1 = 3.046e-05): 0.00382 ± 3.8e-05 S/m
electrical conductivity (x2 = 2.252e-05, x1 = 3.442e-05): 0.00393 ± 3.9e-05 S/m
electrical conductivity (x2 = 2.252e-05, x1 = 3.838e-05): 0.00411 ± 4.1e-05 S/m
electrical conductivity (x2 = 2.252e-05, x1 = 4.235e-05): 0.00422 ± 4.2e-05 S/m
electrical conductivity (x2 = 2.252e-05, x1 = 4.613e-05): 0.00439 ± 4.4e-05 S/m
electrical conductivity (x2 = 2.252e-05, x1 = 4.992e-05): 0.00462 ± 4.6e-05 S/m
electrical conductivity (x2 = 2.252e-05, x1 = 5.172e-05): 0.00468 ± 4.7e-05 S/m
electrical conductivity (x2 = 2.252e-05, x1 = 6.073e-05): 0.00486 ± 4.9e-05 S/m
electrical conductivity (x2 = 2.252e-05, x1 = 6.938e-05): 0.00502 ± 5e-05 S/m
electrical conductivity (x2 = 2.252e-05, x1 = 7.767e-05): 0.00529 ± 5.3e-05 S/m
electrical conductivity (x2 = 2.252e-05, x1 = 8.542e-05): 0.00541 ± 5.4e-05 S/m
electrical conductivity (x2 = 2.252e-05, x1 = 9.316e-05): 0.00565 ± 5.7e-05 S/m
electrical conductivity (x2 = 2.252e-05, x1 = 0.0001004): 0.00593 ± 5.9e-05 S/m
electrical conductivity (x2 = 2.252e-05, x1 = 0.0001074): 0.00614 ± 6.1e-05 S/m
electrical conductivity (x2 = 2.252e-05, x1 = 0.0001142): 0.00629 ± 6.3e-05 S/m
electrical conductivity (x2 = 2.252e-05, x1 = 0.0001207): 0.00635 ± 6.4e-05 S/m
electrical conductivity (x2 = 0.0003926, x1 = 6.912e-05): 0.0057 ± 5.7e-05 S/m
electrical conductivity (x2 = 0.0003926, x1 = 7.742e-05): 0.00596 ± 6e-05 S/m
electrical conductivity (x2 = 0.0003927, x1 = 1.08e-06): 0.000964 ± 1e-05 S/m
electrical conductivity (x2 = 0.0003927, x1 = 2.35e-06): 0.00116 ± 1.2e-05 S/m
electrical conductivity (x2 = 0.0003927, x1 = 3.43e-06): 0.00138 ± 1.4e-05 S/m
electrical conductivity (x2 = 0.0003927, x1 = 4.51e-06): 0.001535 ± 1.5e-05 S/m
electrical conductivity (x2 = 0.0003927, x1 = 5.78e-06): 0.00176 ± 1.8e-05 S/m
electrical conductivity (x2 = 0.0003927, x1 = 6.86e-06): 0.001924 ± 1.9e-05 S/m
electrical conductivity (x2 = 0.0003927, x1 = 7.94e-06): 0.00212 ± 2.1e-05 S/m
electrical conductivity (x2 = 0.0003927, x1 = 9.02e-06): 0.00222 ± 2.2e-05 S/m
electrical conductivity (x2 = 0.0003927, x1 = 1.029e-05): 0.0024 ± 2.4e-05 S/m
electrical conductivity (x2 = 0.0003927, x1 = 1.137e-05): 0.00252 ± 2.5e-05 S/m
electrical conductivity (x2 = 0.0003927, x1 = 1.245e-05): 0.00271 ± 2.7e-05 S/m
electrical conductivity (x2 = 0.0003927, x1 = 1.354e-05): 0.00279 ± 2.8e-05 S/m
electrical conductivity (x2 = 0.0003927, x1 = 1.462e-05): 0.00297 ± 3e-05 S/m
electrical conductivity (x2 = 0.0003927, x1 = 1.57e-05): 0.00311 ± 3.1e-05 S/m
electrical conductivity (x2 = 0.0003927, x1 = 1.787e-05): 0.0034 ± 3.4e-05 S/m
electrical conductivity (x2 = 0.0003927, x1 = 2.003e-05): 0.0035 ± 3.5e-05 S/m
electrical conductivity (x2 = 0.0003927, x1 = 2.22e-05): 0.00366 ± 3.7e-05 S/m
electrical conductivity (x2 = 0.0003927, x1 = 2.418e-05): 0.00389 ± 3.9e-05 S/m
electrical conductivity (x2 = 0.0003927, x1 = 2.635e-05): 0.00397 ± 4e-05 S/m
electrical conductivity (x2 = 0.0003927, x1 = 3.032e-05): 0.00414 ± 4.1e-05 S/m
electrical conductivity (x2 = 0.0003927, x1 = 3.447e-05): 0.00426 ± 4.3e-05 S/m
electrical conductivity (x2 = 0.0003927, x1 = 3.844e-05): 0.00448 ± 4.5e-05 S/m
electrical conductivity (x2 = 0.0003927, x1 = 4.223e-05): 0.00473 ± 4.7e-05 S/m
electrical conductivity (x2 = 0.0003927, x1 = 4.602e-05): 0.00487 ± 4.9e-05 S/m
electrical conductivity (x2 = 0.0003927, x1 = 4.981e-05): 0.00495 ± 5e-05 S/m
electrical conductivity (x2 = 0.0003927, x1 = 5.161e-05): 0.00502 ± 5e-05 S/m
electrical conductivity (x2 = 0.0003927, x1 = 6.064e-05): 0.00532 ± 5.3e-05 S/m

Source: the CheMixHub ionic liquid set
